How the values were obtained:
[1] = DNDI: Cytotoxicity against human MRC-5 lung fibroblast cells.; conditions: IC50
[2] = system: Trypanosoma brucei brucei; test: microbe, parasite or virus in culture; type: functional, organism-based, STIB 795
Description: DNDI: Inhibition of Human African Trypanosomiasis (HAT), STIB 795, in vitro

| SMILES | IC50 [1] [µM] | IC50 ([2]; Trypanosoma brucei, STIB 795) [µM] | IC50 [2] [µM] |
| --- | --- | --- | --- |
| CCN1C=Cc2ccccc2/C1=C\c1ccc2ccccc2[n+]1CC | > 4.17 | 0.086 |  |
| CN(C)CCCNc1nc(-c2ccc(Cl)cc2)nc2ccccc12 | > 20.8 | 3.74 |  |
| Cc1conc1NC(c1cccs1)c1ccc2cccnc2c1O (stereo unspecified) | > 20.8 | 5.74 |  |
| COc1ccc(C(=O)O/N=C(\N)c2ccccc2Cl)cc1OC | > 20.8 | 0.686 |  |
| N=C(NOC(=O)N1CCOCC1)c1ccc(Br)cc1 | > 20.8 | 0.748 |  |
| CCCn1c(=O)c2c(nc3n2CCN3Cc2ccco2)n(C)c1=O | > 41.7 | 4.91 |  |
| Cc1cc(NCCN2CCOCC2)c2ccc3ccccc3c2n1 | > 20.8 | 4.87 |  |
| Cc1c(-c2cccc(NC(=O)c3cccs3)c2)nc2ncccn12 | > 41.7 | 5.18 |  |
| CC(Nc1nc(N2CCNCC2)nc2ccccc12)c1ccccc1 (stereo unspecified) | > 4.17 | 1.47 |  |
| O=C(NCCc1csc(-c2cccc(F)c2)n1)c1cccs1 | > 41.7 | ≤ 0.043 |  |
| CC1CCC2C(=O)N(c3ccc(Cc4ccncc4)cc3)C(=O)C2C1 (stereo unspecified) | > 41.7 | 5.32 | 5.4 |
| c1ccc(Sc2cccc3ccccc23)c(CNC2=NCCN2)c1 | > 20.8 | 0.428 |  |
| Cc1ccccc1C(O)(Cc1ccccc1)C1CN2CCC1CC2 (stereo unspecified) | > 4.17 | 4.69 |  |
| COc1ccc(-c2cc3ccccc3n2CC(O)CNCCO)cc1 (stereo unspecified) | > 20.8 | 5.17 |  |
| COc1ccc(CNCCc2c[nH]c3ccccc23)c(OC)c1C | > 20.8 | 5.26 |  |
| O=C(N/N=C(\c1ccccc1)c1ccccn1)c1ccccc1Cl | > 4.17 | 1.76 |  |
| COc1ccc(C2=NNc3cccc4c(OC)ccc2c34)cc1OC | > 41.7 | 5.58 | 5.38 |
| NCCNCCOC(c1ccc(Cl)cc1)c1ccc(Cl)cc1 | 5.61 | 0.239 |  |
| Cc1c(-c2cccc3c2OC(C)(C)C3)ccc2nc(N)nc(N)c12 | > 4.17 | ≤ 1.95 |  |
| CC(C)(C)OC(=O)N/N=C\c1ccc(-c2cccc(Cl)c2)o1 | > 41.7 | 7.35 |  |
| Nc1nc(NN2CCCCC2)nc(-c2cc(Cl)ccc2O)n1 | > 20.8 | 4.15 |  |
| CCc1cc(C2CCCN2C(=O)c2c(F)cccc2Cl)on1 (stereo unspecified) | > 41.7 | 5.12 |  |
| Oc1c(Br)cc(CN2CCOCC2)c2cccnc12 | > 20.8 | 1.1 |  |
| COC(=O)c1cn(NC(=O)c2ccccn2)c(=O)c2ccccc12 | > 10.4 | 0.63 |  |

| SMILES | IC50 [1] [µM] | IC50 ([2]; Trypanosoma brucei, STIB 795) [µM] | IC50 [2] [µM] |
| --- | --- | --- | --- |
| CC(C)(C)c1ccc(Cn2c(=N)n(CCO)c3ccccc32)cc1 | > 41.7 | 4.96 |  |
| Cc1ccccc1OCCn1c(=N)n(CC(C)C)c2ccccc21 | > 20.8 | 5.64 |  |
| Cc1nnc(N/N=C/c2cc(Br)ccc2O)nc1O | 3.41 | 3 |  |
| CC(C)CC(=O)/C(=C/c1ccc(Cl)cc1Cl)n1cncn1 | > 20.8 | 2.27 |  |
| CC1(C)CC(=O)C/C(=N/NC(=O)c2cc3ccccc3cc2O)C1 | > 41.7 | < 0.1 |  |
| COc1cccc(NC(=O)CSc2cccc3cccnc23)c1 | > 41.7 | 5.79 |  |
| N#Cc1ccc(-c2ccncc2)nc1SCCN1CCCCC1 | > 41.7 | 7.34 |  |
| O=C(N/N=C/c1ccc(-c2ccccc2Cl)o1)c1ccccc1 | > 41.7 | < 0.004 |  |
| O=C(N/N=C/c1ccc(Cl)cc1Cl)c1ccc(O)c(O)c1 | > 20.8 | 1.54 |  |
| CCn1nc(/C=C/c2ccccc2)[n+]([O-])c2c(=O)n(C)c(=O)nc1-2 | > 20.8 | 3.67 |  |
| CNCCC(Sc1ccc(C(F)(F)F)cc1)c1ccccc1 (stereo unspecified) | > 20.8 | 1.9 |  |
| CN1/C(=C/C=C/c2ccc3ccccc3[n+]2C)C=Cc2ccccc21 | > 10.4 | 0.077 |  |
| CC1CCC(C(C)C)C(OCC(O)CN2C(C)CCCC2C)C1 (stereo unspecified) | > 20.8 | 3.51 |  |
| CCOC(=O)N/N=C\c1ccc(-c2cccc(C(F)(F)F)c2)o1 | > 41.7 | 3.19 |  |
| O=c1cc(OC2=CS(=O)(=O)c3ccccc32)c2ccccc2o1 | 5.99 | 3.59 |  |
| O=C(COc1ccccc1)N/N=C/c1sc2ccccc2c1O | > 20.8 | 7.88 |  |
| c1ccc2c(OCCCCCCNCC3CCCO3)cccc2c1 (stereo unspecified) | > 41.7 | 5.25 |  |
| CC(C)NC[C@]1(C)CCC[C@]2(C)c3ccc(C(C)C)cc3CC[C@@H]12 | > 41.7 | 0.47 |  |
| O=C(N/N=C/c1sc2ccccc2c1O)c1ccc(O)cc1O | > 4.17 | 4.44 |  |
| NS(=O)(=O)c1ccc(/N=N/c2ccc(O)c3ncccc23)cc1 | > 20.8 | 4.78 |  |
| CCN(CC)c1ccc(/C=N\NC(=O)Cc2cccn2C)c(O)c1 | > 4.17 | 3.62 |  |
| Clc1cc2c(c3ncccc13)OCN(CCC1=CCCCC1)C2 | > 20.8 | 1.05 |  |
| CC(C)(C)c1ccc(/C(=N\NC(=N)N)c2ccc(Cl)cc2)cc1 | > 20.8 | 1.1 |  |
